Values joined by “and” are separate entries in the source; they are usually repeats but may differ in a detail not shown here. Equal values may be shown once.
Columns and labels:
[1] = test system: Enterococcus faecalis isolates; experiment: MIC, Agar Dilution / Micro Dilution Test (NCCLS); assay type: cell-based; details: n=2
Source text: (§1) E.g., the compounds of the present invention show antimicrobial, e.g. antibacterial activity against gram positive bacteria and gram negative, such as Staphylococcus, e.g. S. aureus, MRSA (Methicillin Resistant S. aureus), MSSA (Methicillin Sensitive S. aureus), Enterococcus, e.g. E. faecalis, E. faecium, Moraxella, e.g. M. catarrhalis, in vitro in the Agar Dilution Test and/or Micro Dilution Test for bacteria according to National Committee for Clinical Laboratory Standards (NCCLS) 1993, • Document M7-A4, Vol. 20, No. 2, 2000: “Methods for dilution Antimicrobial Susceptibility Tests for Bacteria that Grow Aerobically”—Third Edition, Approved Standard”; and • Document M26-A, Vo. 19, No. 18, 1999: Methods for determining antibactericidal activity of antimicrobial agents, • Document M11-A3 for anaerobic bacteria, • in a concentration from about 0.1 to ca. 25.6 μg/ml, e.g. using strains including Staphylococcus aureus (ATCC 29213 and ATCC 29506); Enterococcus faecalis ATCC 29212; • and in vivo in the septicaemia mouse model, in accordance to the method description Nr. 159 A-5, approved by Austrian Health Authorities (MA 58, no. 2968/95 of Oct. 12, 1995), e.g. when administered at dosages from 0.05 to 50 mg/kg body weight.
(§2) Furthermore, the compound of example 1 is active against mupirocin-resistant staphylococci (n=26) with MICs below 0.5 μg/ml (range ≦0.125-0.5 μg/ml). Moraxella catarrhalis isolates (n=2) are inhibited at MICs of 0.2 and 0.4 μg/ml. The MICs for Enterococcus faecalis isolates (n=2) are 6.4 μg/ml and 12.8 μg/ml.

Enterococcus faecium = experiment: MIC, Agar Dilution / Micro Dilution Test (NCCLS); assay type: cell-based; details: n=1
Source text: as §1, §2

[2] = test system: Moraxella catarrhalis isolates; experiment: MIC, Agar Dilution / Micro Dilution Test (NCCLS); assay type: cell-based; details: n=2
Source text: as §1, §2

[3] = test system: methicillin-sensitive Staphylococcus aureus (MSSA) strains; experiment: MIC, Agar Dilution / Micro Dilution Test (NCCLS); assay type: cell-based; details: n=26, e.g. in the form of its sodium salt
Source text: as §1, §2

[4] = test system: mupirocin-resistant staphylococci; experiment: MIC, Agar Dilution / Micro Dilution Test (NCCLS); assay type: cell-based; details: n=26
Source text: as §1, §2

[5] = test system: methicillin-resistant S. aureus (MRSA) strains; experiment: MIC, Agar Dilution / Micro Dilution Test (NCCLS); assay type: cell-based, Staphylococcus aureus; details: e.g. in the form of its sodium salt
Source text: E.g., the compounds of the present invention show antimicrobial, e.g. antibacterial activity against gram positive bacteria and gram negative, such as Staphylococcus, e.g. S. aureus, MRSA (Methicillin Resistant S. aureus), MSSA (Methicillin Sensitive S. aureus), Enterococcus, e.g. E. faecalis, E. faecium, Moraxella, e.g. M. catarrhalis, in vitro in the Agar Dilution Test and/or Micro Dilution Test for bacteria according to National Committee for Clinical Laboratory Standards (NCCLS) 1993, • Document M7-A4, Vol. 20, No. 2, 2000: “Methods for dilution Antimicrobial Susceptibility Tests for Bacteria that Grow Aerobically”—Third Edition, Approved Standard”; and • Document M26-A, Vo. 19, No. 18, 1999: Methods for determining antibactericidal activity of antimicrobial agents, • Document M11-A3 for anaerobic bacteria, • in a concentration from about 0.1 to ca. 25.6 μg/ml, e.g. using strains including Staphylococcus aureus (ATCC 29213 and ATCC 29506); Enterococcus faecalis ATCC 29212; • and in vivo in the septicaemia mouse model, in accordance to the method description Nr. […]
The compound of example 1 is a preferred compound of the present invention. It has, for example been determined that the minimum inhibitory concentration, e.g. MIC90 (μg/ml), of the compound of Example 1, e.g. in the form of its sodium salt, against, for example S. aureus (MRSA) is of about 0.2.

[6] = test system: S. aureus B29 (clinical isolate, MRSA); experiment: septicaemia mouse model; assay type: in vivo; details: mice, survival on day 5, Probit analysis, e.g. sodium salt
Source text: as §1
(§3) The ED50 values are calculated by Probit analysis of the administered dosages of compounds. Activity is determined by numbers of surviving animals per group of 8 or 6 mice, respectively, per dosage unit on day 5 after infection.

[7] = test system: Staphylococcus aureus (ATCC 49951, MSSA); experiment: septicaemia mouse model; assay type: in vivo; details: mice, treated orally 1 and 4 hours after infection; survival on day 5; Probit analysis; e.g. sodium salt; ranging from 5.54 to 13.34
Source text: as §1, §3

## 6-O-(2′-fluoroisobutyryl)-24, 25-dihydro-acremonic acid [Example 1]
[1]
  MICs: 6.4 µg/mL and 12.8 µg/mL
Enterococcus faecium
  MIC: 6.4 µg/mL
[2]
  MICs: 0.2 µg/mL and 0.4 µg/mL
[3]
  MIC90: 0.25 µg/mL
[4]
  MIC range: 0.125 to 0.5 µg/mL
  MICs: below 0.5 μg/ml
[5]; MRSA strains, n=26
  MIC50: 0.2 µg/mL
[5]; S. aureus (MRSA)
  MIC90: about 0.2 μg/ml
[6]; treated orally 1 and 4 hours after infection, ranging from 4.25 to 11.98
  ED50: ca. 6.65 mg/kg body weight
[6]; treated subcutaneously 1 and 4 hours after infection, ranging from 1.93 to 5.85
  ED50: ca. 3.20 mg/kg body weight
[7]
  ED50: ca. 8.55 mg/kg body weight
